Experimental data published in the supplement of paper PMC4862054.

test system: CAL-85-1; settings: 72 h
Description: (§1)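 Drug sensitivity and resistance testing (DSRT) of breast cancer cell lines in 384-well plates, 5 concentrations in 10-fold dilutions over a compound-specific 10,000-fold range. After 72 h, cytotoxicity was read by CellTox Green fluorescence and viability by CellTiter-Glo luminescence (multiplexed), normalised to DMSO and benzethonium chloride controls. EC50 is the inflection point of the fitted dose-response curve (bottom asymptote free, so it can be relative for partial curves) and is censored at the highest tested concentration. Rows with DSS 0 (no meaningful response) were excluded.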

| Structure (SMILES) | EC50, CellTox Green [nM] |
| --- | --- |
| N#CCNC(=O)c1ccc(-c2ccnc(Nc3ccc(N4CCOCC4)cc3)n2)cc1 [Momelotinib] | 1630 |
| CO[C@H]1/C=C\C=C(/C)C(=O)NC2=CC(=O)C(NCCN(C)C)=C(C[C@@H](C)C[C@H](OC)[C@H](O)[C@@H](C)/C=C(\C)[C@@H]1OC(N)=O)C2=O [Alvespimycin] | 187 |
| COc1cc2ncnc(Nc3ccc(F)c(Cl)c3)c2cc1NC(=O)/C=C/CN1CCCCC1 [Dacomitinib] | 564 |

test system: DU-4475; settings: 72 h
Description: as §1

| Structure (SMILES) | EC50, CellTox Green [nM] |
| --- | --- |
| CN[C@@H]1C[C@H]2O[C@@](C)([C@@H]1OC)n1c3ccccc3c3c4c(c5c6ccccc6n2c5c31)C(=O)N[C@H]4O [UCN-01] | 128 |
| COc1cc([C@@H]2c3cc4c(cc3[C@@H](O[C@@H]3O[C@@H]5CO[C@@H](C)O[C@H]5[C@H](O)[C@H]3O)[C@H]3COC(=O)[C@H]23)OCO4)cc(OC)c1O [Etoposide] | 3830 |
| CO[C@H]1/C=C\C=C(/C)C(=O)NC2=CC(=O)C(NCCN(C)C)=C(C[C@@H](C)C[C@H](OC)[C@H](O)[C@@H](C)/C=C(\C)[C@@H]1OC(N)=O)C2=O [Alvespimycin] | 26.6 |

test system: HCC1143; settings: 72 h
Description: as §1

| Structure (SMILES) | EC50, CellTox Green [nM] |
| --- | --- |
| CN[C@@H]1C[C@H]2O[C@@](C)([C@@H]1OC)n1c3ccccc3c3c4c(c5c6ccccc6n2c5c31)C(=O)N[C@H]4O [UCN-01] | 114 |
| O=C(CCCCCCC(=O)Nc1ccc([C@H]2O[C@@H](CSc3nc(-c4ccccc4)c(-c4ccccc4)o3)C[C@@H](c3ccc(CO)cc3)O2)cc1)NO [Tubacin] | 6850 |
| CO[C@H]1/C=C\C=C(/C)C(=O)NC2=CC(=O)C(NCCN(C)C)=C(C[C@@H](C)C[C@H](OC)[C@H](O)[C@@H](C)/C=C(\C)[C@@H]1OC(N)=O)C2=O [Alvespimycin] | 138 |

test system: HCC1937; settings: 72 h
Description: as §1

| Structure (SMILES) | EC50, CellTox Green [nM] |
| --- | --- |
| Cc1ccc(C(=O)Nc2ccc(CN3CCN(C)CC3)c(C(F)(F)F)c2)cc1C#Cc1cnc2cccnn12 [Ponatinib] | 387 |
| O=C(CCCCCCC(=O)Nc1ccc([C@H]2O[C@@H](CSc3nc(-c4ccccc4)c(-c4ccccc4)o3)C[C@@H](c3ccc(CO)cc3)O2)cc1)NO [Tubacin] | 124 |
| CO[C@H]1/C=C\C=C(/C)C(=O)NC2=CC(=O)C(NCCN(C)C)=C(C[C@@H](C)C[C@H](OC)[C@H](O)[C@@H](C)/C=C(\C)[C@@H]1OC(N)=O)C2=O [Alvespimycin] | 781 |

test system: HDQ-P1; settings: 72 h
Description: as §1

| Structure (SMILES) | EC50, CellTox Green [nM] |
| --- | --- |
| CN[C@@H]1C[C@H]2O[C@@](C)([C@@H]1OC)n1c3ccccc3c3c4c(c5c6ccccc6n2c5c31)C(=O)N[C@H]4O [UCN-01] | 34.3 |
| C[C@@H](Oc1cc(-c2cnn(C3CCNCC3)c2)cnc1N)c1c(Cl)ccc(F)c1Cl [Crizotinib] | > 1000 |
| CO[C@H]1/C=C\C=C(/C)C(=O)NC2=CC(=O)C(NCCN(C)C)=C(C[C@@H](C)C[C@H](OC)[C@H](O)[C@@H](C)/C=C(\C)[C@@H]1OC(N)=O)C2=O [Alvespimycin] | 12.2 |

test system: Hs578T; settings: 72 h
Description: as §1

| Structure (SMILES) | EC50, CellTox Green [nM] |
| --- | --- |
| NC(=O)Nc1cc(-c2cccc(F)c2)sc1C(=O)N[C@H]1CCCNC1 [AZD7762] | 2.65 |
| CN[C@@H]1C[C@H]2O[C@@](C)([C@@H]1OC)n1c3ccccc3c3c4c(c5c6ccccc6n2c5c31)C(=O)N[C@H]4O [UCN-01] | 266 |
| COc1cc([C@@H]2c3cc4c(cc3[C@@H](O[C@@H]3O[C@@H]5CO[C@@H](C)O[C@H]5[C@H](O)[C@H]3O)[C@H]3COC(=O)[C@H]23)OCO4)cc(OC)c1O [Etoposide] | 55.8 |
| CO[C@H]1/C=C\C=C(/C)C(=O)NC2=CC(=O)C(NCCN(C)C)=C(C[C@@H](C)C[C@H](OC)[C@H](O)[C@@H](C)/C=C(\C)[C@@H]1OC(N)=O)C2=O [Alvespimycin] | 242 |

test system: MCF-10A; settings: 72 h
Description: as §1

| Structure (SMILES) | EC50, CellTox Green [nM] |
| --- | --- |
| CN[C@@H]1C[C@H]2O[C@@](C)([C@@H]1OC)n1c3ccccc3c3c4c(c5c6ccccc6n2c5c31)C(=O)N[C@H]4O [UCN-01] | 130 |
| CO[C@H]1/C=C\C=C(/C)C(=O)NC2=CC(=O)C(NCCN(C)C)=C(C[C@@H](C)C[C@H](OC)[C@H](O)[C@@H](C)/C=C(\C)[C@@H]1OC(N)=O)C2=O [Alvespimycin] | 37.9 |

test system: MDA-MB-231; settings: 72 h
Description: as §1

| Structure (SMILES) | EC50, CellTox Green [nM] |
| --- | --- |
| NC(=O)Nc1cc(-c2cccc(F)c2)sc1C(=O)N[C@H]1CCCNC1 [AZD7762] | 745 |
| Cc1ccc(C(=O)Nc2ccc(CN3CCN(C)CC3)c(C(F)(F)F)c2)cc1C#Cc1cnc2cccnn12 [Ponatinib] | 231 |
| CN[C@@H]1C[C@H]2O[C@@](C)([C@@H]1OC)n1c3ccccc3c3c4c(c5c6ccccc6n2c5c31)C(=O)N[C@H]4O [UCN-01] | 88.8 |
| O=C(CCCCCCC(=O)Nc1ccc([C@H]2O[C@@H](CSc3nc(-c4ccccc4)c(-c4ccccc4)o3)C[C@@H](c3ccc(CO)cc3)O2)cc1)NO [Tubacin] | 2010 |
| N#CCNC(=O)c1ccc(-c2ccnc(Nc3ccc(N4CCOCC4)cc3)n2)cc1 [Momelotinib] | 77.2 |
| CO[C@H]1/C=C\C=C(/C)C(=O)NC2=CC(=O)C(NCCN(C)C)=C(C[C@@H](C)C[C@H](OC)[C@H](O)[C@@H](C)/C=C(\C)[C@@H]1OC(N)=O)C2=O [Alvespimycin] | 171 |

test system: MDA-MB-436; settings: 72 h
Description: as §1

| Structure (SMILES) | EC50, CellTox Green [nM] |
| --- | --- |
| O=P1(NCCCl)OCCCN1CCCl (stereo not drawn) [Ifosfamide] | > 10000 |
| COc1cc2ncnc(Nc3ccc(F)c(Cl)c3)c2cc1NC(=O)/C=C/CN1CCCCC1 [Dacomitinib] | 319 |

test system: MDA-MB-453; settings: 72 h
Description: as §1

| Structure (SMILES) | EC50, CellTox Green [µM] |
| --- | --- |
| CN[C@@H]1C[C@H]2O[C@@](C)([C@@H]1OC)n1c3ccccc3c3c4c(c5c6ccccc6n2c5c31)C(=O)N[C@H]4O [UCN-01] | 6 |
| O=C(CCCCCCC(=O)Nc1ccc([C@H]2O[C@@H](CSc3nc(-c4ccccc4)c(-c4ccccc4)o3)C[C@@H](c3ccc(CO)cc3)O2)cc1)NO [Tubacin] | 8.37 |

test system: MDA-MB-468; settings: 72 h
Description: as §1

| Structure (SMILES) | EC50, CellTox Green [nM] |
| --- | --- |
| NC(=O)Nc1cc(-c2cccc(F)c2)sc1C(=O)N[C@H]1CCCNC1 [AZD7762] | 26.5 |
| CNCc1ccc(-c2[nH]c3cc(F)cc4c3c2CCNC4=O)cc1 [Rucaparib] | 2.01 |
| COc1cc([C@@H]2c3cc4c(cc3[C@@H](O[C@@H]3O[C@@H]5CO[C@@H](C)O[C@H]5[C@H](O)[C@H]3O)[C@H]3COC(=O)[C@H]23)OCO4)cc(OC)c1O [Etoposide] | 2330 |
| N#CCNC(=O)c1ccc(-c2ccnc(Nc3ccc(N4CCOCC4)cc3)n2)cc1 [Momelotinib] | 5270 |
| CO[C@H]1/C=C\C=C(/C)C(=O)NC2=CC(=O)C(NCCN(C)C)=C(C[C@@H](C)C[C@H](OC)[C@H](O)[C@@H](C)/C=C(\C)[C@@H]1OC(N)=O)C2=O [Alvespimycin] | 682 |

test system: MFM-223; settings: 72 h
Description: as §1

| Structure (SMILES) | EC50, CellTox Green [nM] |
| --- | --- |
| CN[C@@H]1C[C@H]2O[C@@](C)([C@@H]1OC)n1c3ccccc3c3c4c(c5c6ccccc6n2c5c31)C(=O)N[C@H]4O [UCN-01] | 46.3 |
| Cn1c(Nc2ccc(C(F)(F)F)cc2)nc2cc(Oc3ccnc(-c4ncc(C(F)(F)F)[nH]4)c3)ccc21 [RAF265] | 600 |
